Test results: patent US6846925B2, “Colchinol derivatives as angiogenesis inhibitors” (Angiogene Pharmaceuticals Limited, priority 2000, dated 2005)

What was measured:
[1] = tested on: Hras5 tumours (NIH 3T3 fibroblasts transfected with Harvey ras, clone 5); test: Hras5 necrosis model; format: in vivo, nude mice; conditions: single dose, culled 24 hours after dosing
Experimental: NIH 3T3 fibroblasts transfected with Harvey ras, clone 5, (Hras5 cells) were kept in continual passage in Dulbecco's modifed Eagles medium (DMEM) containing 10% foetal bovine serum (FBS) and 1% glutamine, at 37° C. in a humidified incubator gassed with 7.5% carbon dioxide and […]. Cells were implanted subcutaneously into the left flank of male nude mice (8-10 weeks of age) at an inoculum of 2×10^5 cells/mouse. Tumours were measured using calipers and randomised into groups of 2-4 mice between days 9-14 after implant. Mice were dosed with compounds, either intravenously or intraperitoneally, once on day of randomisation and culled 24 hours after dosing. Compounds were dissolved in 20% hydroxypropyl beta cyclodextrin in physiological saline at pH 7 and dosed in a volume of 0.1 ml per 10 g body weight. Tumours were excised, weighed and placed in buffered formalin. Area of necrosis in individual tumours was assessed from a haematoxylin/eosin stained-slide by a pathologist and scored from 0, meaning no significant change, to 10, meaning 91-100% necrosis. The activity of examples 5 and 7 (described hereinafter) against tumour vasculature was measured by the fluorescent dye method described hereinabove. Example 1 scored 6.0 at 100 m/kg and example 4 scored 3.2 at 50 m/kg.

[2] = tested on: tumour vasculature of CaNT tumours; test: Activity against tumour vasculature measured by fluorescent dye (Hoechst 33342); format: in vivo; conditions: CaNT tumour-bearing mice, 50 mg/kg intraperitoneally, dye 24 hours after drug treatment
Experimental: (b) Activity Against Tumour Vasculature Measured by Fluorescent Dye
Tumour functional vascular volume in CaNT tumour-bearing mice was measured using the fluorescent dye Hoechst 33342 according to the method of Smith et al (Brit. Jnl. Cancer 1988, 57, 247-253). Five animals were used in control and treated groups. The fluorescent dye was dissolved in saline at 6.25 mg/ml and injected intravenously at 10 mg/kg 24 hours after intraperitoneal drug treatment. One minute later, animals were killed and tumours excised and frozen; 10 μm sections were cut at 3 different levels and observed under UV illumination using an Olympus microscope equipped with epifluorescence. Blood vessels were identified by their fluorescent outlines and vascular volume was quantified using a point scoring system based on that described by Chalkley, (Jnl. Natl. Cancer Inst., 1943, 4, 47-53). All estimates were based on counting a minimum of 100 fields from sections cut at the 3 different levels.

tubulin = conditions: O. Boye et al Med. Chem. Res., 1991, 1, 142-150; read-out: IC50 in a tubulin polymerisation assay; cited from earlier work

With `COc1ccc2c(c1)[C@@H](NC(=O)CNC(=O)CN)CCc1cc(OC)c(OC)c(OC)c1-2` [Example 1, N-[(5S)-3,9,10,11-Tetramethoxy-6,7-dihydro-5H-dibenzo[a,c]cyclohepten-5-yl]-2-[2-aminoacetylamino]acetamide] the “necrosis score (0 = no significant change, 10 = 91-100% necrosis)” value ([1]; 100 m/kg) was 6.0.
For `COc1ccc2c(c1)[C@@H](NC(=O)OCCOP(=O)([O-])[O-])CCc1cc(OC)c(OC)c(OC)c1-2.[Na+].[Na+]` [Example 4, 2-{N-[(5S)-3,9,10,11-tetramethoxy-6,7-dihydro-5H-dibenzo[a,c]cyclohepten-5-yl]carbamoyloxy}ethyl disodium phosphate], the “necrosis score (0 = no significant change, 10 = 91-100% necrosis)” value ([1]; 50 m/kg) was 3.2.
For `COc1cc2c(c(OC)c1OC)-c1ccc(N)cc1C(NC(C)=O)CC2` (stereo not shown) [N-[3-amino-9,10,11-trimethoxy-6,7-dihydro-5H-dibenzo[a,c]cyclohepten-5-yl]acetamide], the “decrease of perfused vascular volume relative to control” value [2] is given as 88% and the IC50 (tubulin) is given as 58 µM.
